Source: US11807895B2, “High-throughput drug and genetic assays for cellular transformation” (THE BROAD INSTITUTE, INC., priority 2015, dated 2023)
“Also recorded” adds a separate entry of the source. Structures can show the parent of a compound that is named as a salt.

Experiments:
[1] = system: fibroblasts transformed with TERT, SV40 T-antigen, and H-RAS; assay: GILA (growth in low attachment) drug screen, ATP/CellTiter-Glo viability; assay type: cell-based, human; details: 633 kinase inhibitors and FDA-approved drugs screened at 30 μM or 10 μM, 5 days
Description: To identify drugs specifically inhibiting the oncogenic state of fibroblasts transformed with TERT, SV40 T-antigen, and H-RAS (Hahn W C, et al. (1999) Creation of human tumour cells with defined genetic elements. Nature 400:464-468.), GILA was used as a primary screen and growth on standard high-attachment plates as a counterscreen.
Transformed fibroblast cells were maintained as subconfluent monolayers, trypsinized, and seeded in 96-well plates (for analytical assays, FIG. 14) or in 384-well white plates (for screens, FIG. 3). The cell concentration was optimized to 1000 cells/well in 100 μl medium (for 96-well plate) or 50 cells/well in 30 μl growth medium (for 384-well plate). Two types of plates were used in the screens: high-attachment conditions (Corning, 3704) and Ultra Low-attachment (Sumitomo, PrimeSurface384U). Cells were seeded automatically using the liquid rapid dispenser Metrix WellMate (Thermo). Two small molecule libraries (NIH Clinical Collection 1-2013 and Kinase Inhibitor Focused Library) were transferred to each microplate, at 100 nl drug per well, to final concentration of 30 μM or 10 μM, respectively, by using the robotic transfer system (Seiko Epson) and pin array (V&P). Controls were added by multichannel pipette. After 5 days of incubation at 37° C. in 5% CO2, the cells were assayed for ATP content. […] The secondary screen was conducted similarly, except that an HP D300 Digital Liquid Dispenser and T8 dispenseheads (HP) was used to add 4 different concentrations of small molecules to the cells.
Crosstalk corrected values from EnVision reader were used to normalize the luminescence from each wells.

[2] = system: ascites-derived ovarian cancer cells from patients; assay: Ex-vivo GILA drug sensitivity of patient-derived cancer cells; assay type: cell-based, human; details: for inhibitory activity in ex-vivo GILA assay: 5 patients who failed multiple lines of treatment, 5000 cells per well, 72 hours; for dose dependence of viability in ex-vivo GILA: ovary cancer patient derived cells
Description: Patient-derived ovarian cancer cells are sensitive to FDA-approved drugs identified in the GILA-based screen. […] Immediately after procurement, ascites samples were processed and 5000 cells per well were flow-sorted into 96-well microtiter plates with low or high-attachment surfaces containing 100 μl of growth medium per well.
Cell viability was measured with the CellTiter-Glo (Promega) luminescent assay, using the EnVision Plate Reader (PerkinElmer) or the SpectraMax M5 Multi-Mode Microplate Reader (Molecular Devices). For high-attachment growth, tissue culture-treated 96-well clear plates (#3997, Corning) were used, while for the GILA assay low attachment surface plates (#3474, Corning) of 96-well clear plates were used for 3 to 5 days. Later the cells were moved to 96-Well Solid White Polystyrene Microplate (#3362, 14 Corning) for reading luminescence signal. To avoid bleeding of luminescence between the wells, every other well left empty in the solid white microplate. 30 μl of CTG reagent was used for 384-well microplates, and 100 μl for 96-well microplates. The cells were moderately shaken for 5 minutes in the reagent, followed by incubation for 20 minutes to ensure cell lysis. No background signal was detected from wells containing only culture medium.
Under an institutional review board approved protocol, freshly discarded ascites from patients with advanced stage ovarian cancers was collected from 5 individuals. Ascites fluid was immediately transferred on ice for further processing. Samples were spun down and red blood cells were removed with hypotonic lysis using ACK lysing buffer (Life Technologies). Cells were filtered through a 40 μm mesh and washed in PBS with 2% FBS and subjected to staining for FACS.
Cells were prepared per standard protocols, stained with Calcein-AM, CD45-FITC, EPCAM-PE and CD24-PE/Cy7 and incubated for 20 minutes on ice. Cells were washed with […] prior to flow-sorting. After doublet discrimination and compensation for spectral overlap, single, viable cells, negative for CD45 and positive for EPCAM and CD24 were flow-sorted into wells (96 well plates) prepared with growth 15 medium. Samples were sorted on a BD FACSAria SORP and analyzed using BD FACSDiva Software (BD Biosciences).

[3] = system: IL-6; details: Hong et al. 2012: LPS-stimulated mouse macrophages and TG-injected mice; cited from earlier work
[4] = listed as Azelastine hydrochloride, hydrochloride

Structure (SMILES) | hit in GILA-based drug screen (inhibits growth in low attachment, less pronounced effect on high attachment) [1] | further results
Cc1cccc(-c2[nH]ncc2-c2ccc3ncccc3n2)n1 [RepSox] | identified and validated in the drug screen | 
CN1CCCC(n2nc(Cc3ccc(Cl)cc3)c3ccccc3c2=O)CC1 (stereo not drawn) [azelastine hydrochloride] | identified and validated in the drug screen | inhibitory activity in ex-vivo GILA assay [2, 4]: highly effective at inhibiting growth; inhibitory activity in ex-vivo GILA assay ([2]; listed as azelastine, hydrochloride): demonstrated inhibitory activity; dose dependence of viability in ex-vivo GILA ([2]; hydrochloride): dose dependent response; dose dependence of viability in ex-vivo GILA [2, 4]: concentration-dependent viability
C=C1/C(=C\C=C2/CCC[C@]3(C)[C@@H]([C@H](C)/C=C/[C@@H](O)C4CC4)CC[C@@H]23)C[C@@H](O)C[C@@H]1O [calcipotriol] | top hits | 
CC(=O)Oc1ccccc1C(=O)Nc1ncc([N+](=O)[O-])s1 [nitazoxanide] | top hits; also recorded: identified and validated in the drug screen | inhibitory activity in ex-vivo GILA assay [2]: demonstrated inhibitory activity; IL-6 suppression [3]: suppresses IL-6
COc1ccc(-c2cc(=O)c3c(OC)c(OC)c(OC)c(OC)c3o2)cc1OC [nobiletin] | identified and validated in the drug screen | 
CC(C)CC(N(C)C)C1(c2ccc(Cl)cc2)CCC1 (stereo not drawn) [sibutramine] | top hits | 
